Test results reported in patent US20110230481A2, “DERIVATIVES OF TETRABROMOBENZIMIDAZOLE, A PROCESS FOR THE PREPARATION THEREOF, A PHARMACEUTICAL COMPOSITION COMPRISING THE SAME, A METHOD OF USING THE SAME, A METHOD FOR MODULATING OR REGULATING SERINE/THREONINE KINASES, AND SERINE/THREONINE KINASES MODULATING AGENT” (SELVITA S.A., priority 2009, published 2011).

Key:
Assay in all cases: KINOMEscan Max
Format in all cases: binding
MEK2 = MEK2 (Homo sapiens, UniProt P36507)
Description: (§1) Kinase panel profiling was performed at Ambit Kinomescan (http://www.ambitbio.com/technology/) using the “KINOMEscan™ Max” assay platform, a high-throughput method for screening small molecule compounds against large numbers of human kinases. KINOMEscan™ is based on a competition binding assay that quantitatively measures the ability of a compound to compete with an immobilized, active-site directed ligand. The assay is performed by combining three components: DNA-tagged kinase; immobilized ligand; and a test compound. The ability of the test compound to compete with the immobilized ligand is measured via quantitative PCR of the DNA tag. For a description of Ambit's assay protocol, see Fabian et al. A small molecule-kinase interaction map for clinical kinase inhibitors. Nat. Biotechnol. 23, 329-336 (2005).

FGR = target: T1, FGR (Homo sapiens, UniProt P09769)
T1 construct: purchased Ambit Kinomescan (contract panel, KINOMEscan Max)
Description: as §1

DMPK2 = DMPK2 (Homo sapiens, UniProt Q6DT37)
Description: as §1

NEK7 = target: T2, NEK7 (Homo sapiens, UniProt Q8TDX7)
T2 construct: DNA tag (qPCR read-out)
T2 sequence (Q8TDX7 whole entry): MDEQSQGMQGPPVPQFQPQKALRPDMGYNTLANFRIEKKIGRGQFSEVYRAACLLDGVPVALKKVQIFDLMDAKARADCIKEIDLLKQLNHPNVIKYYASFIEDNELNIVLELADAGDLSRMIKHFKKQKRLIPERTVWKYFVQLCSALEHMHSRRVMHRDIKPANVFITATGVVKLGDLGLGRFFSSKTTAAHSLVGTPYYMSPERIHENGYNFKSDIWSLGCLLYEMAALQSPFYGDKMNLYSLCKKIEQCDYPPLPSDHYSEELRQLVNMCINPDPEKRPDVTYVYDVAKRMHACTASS
Description: as §1

GRK7 = target: T3, GRK7 (Homo sapiens, UniProt Q8WTQ7)
T3 construct: purchased Ambit Kinomescan (contract panel, KINOMEscan Max)
Description: as §1

GSK3B = target: T4, GSK3B (Homo sapiens, UniProt P49841)
T4 construct: purchased Ambit Kinomescan (contract panel, KINOMEscan Max)
Description: as §1

WEE2 = target: T5, WEE2 (Homo sapiens, UniProt P0C1S8)
T5 construct: purchased Ambit Kinomescan (contract screening service)
Description: as §1

BRSK1 = target: T6, BRSK1 (Homo sapiens, UniProt Q8TDC3)
T6 construct: DNA tag (qPCR label); purchased Ambit Kinomescan (contract screening)
Description: as §1

PRKD2 = target: T7, PRKD2 (Homo sapiens, UniProt Q9BZL6)
T7 construct: DNA tag (qPCR read-out)
Description: as §1

LATS2 = target: T8, LATS2 (Homo sapiens, UniProt Q9NRM7); conditions: 1 μM
T8 construct: purchased Ambit (KINOMEscan Max service)
Description: as §1

BMPR2 = BMPR2 (Homo sapiens, UniProt Q13873); conditions: 1 μM
Chain of BMPR2 (Q13873 27-1038): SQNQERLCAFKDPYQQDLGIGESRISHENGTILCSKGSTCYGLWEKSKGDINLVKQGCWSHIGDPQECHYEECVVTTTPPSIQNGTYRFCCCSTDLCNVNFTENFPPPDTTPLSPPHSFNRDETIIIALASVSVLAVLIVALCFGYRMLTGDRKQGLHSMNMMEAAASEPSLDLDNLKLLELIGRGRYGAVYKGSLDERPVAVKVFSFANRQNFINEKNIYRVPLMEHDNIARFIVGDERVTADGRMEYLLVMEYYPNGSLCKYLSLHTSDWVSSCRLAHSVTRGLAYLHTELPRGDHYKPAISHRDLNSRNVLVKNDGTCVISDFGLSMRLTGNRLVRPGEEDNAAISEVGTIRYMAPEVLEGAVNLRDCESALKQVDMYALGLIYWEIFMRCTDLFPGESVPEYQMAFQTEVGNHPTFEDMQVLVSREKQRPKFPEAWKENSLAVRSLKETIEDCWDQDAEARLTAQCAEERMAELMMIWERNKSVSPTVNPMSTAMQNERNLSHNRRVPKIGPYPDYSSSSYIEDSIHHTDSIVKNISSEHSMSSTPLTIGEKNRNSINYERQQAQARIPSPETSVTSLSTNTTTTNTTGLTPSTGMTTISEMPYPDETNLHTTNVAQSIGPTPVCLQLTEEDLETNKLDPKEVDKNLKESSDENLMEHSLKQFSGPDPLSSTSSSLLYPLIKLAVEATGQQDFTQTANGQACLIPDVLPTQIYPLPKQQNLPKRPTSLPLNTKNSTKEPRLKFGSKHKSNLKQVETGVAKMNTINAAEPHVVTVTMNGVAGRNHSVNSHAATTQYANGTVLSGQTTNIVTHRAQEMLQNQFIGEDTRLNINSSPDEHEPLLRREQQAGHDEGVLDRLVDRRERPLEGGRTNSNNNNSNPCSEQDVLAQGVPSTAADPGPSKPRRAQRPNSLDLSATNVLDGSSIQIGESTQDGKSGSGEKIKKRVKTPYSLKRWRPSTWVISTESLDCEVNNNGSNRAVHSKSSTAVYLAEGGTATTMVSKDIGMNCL
Description: as §1

CSNK1D = target: T9, CSNK1D (Homo sapiens, UniProt P48730)
T9 construct: DNA tag (qPCR read-out); purchased Ambit Kinomescan
Description: as §1

RIOK3 = target: T10, RIOK3 (Homo sapiens, UniProt O14730)
T10 construct: DNA tag (qPCR read-out)
Description: as §1

PFTK1 = target: T11, PFTK1 (Homo sapiens, UniProt O94921); conditions: 1 μM
T11 construct: DNA tag (qPCR read-out)
T11 sequence (O94921 whole entry): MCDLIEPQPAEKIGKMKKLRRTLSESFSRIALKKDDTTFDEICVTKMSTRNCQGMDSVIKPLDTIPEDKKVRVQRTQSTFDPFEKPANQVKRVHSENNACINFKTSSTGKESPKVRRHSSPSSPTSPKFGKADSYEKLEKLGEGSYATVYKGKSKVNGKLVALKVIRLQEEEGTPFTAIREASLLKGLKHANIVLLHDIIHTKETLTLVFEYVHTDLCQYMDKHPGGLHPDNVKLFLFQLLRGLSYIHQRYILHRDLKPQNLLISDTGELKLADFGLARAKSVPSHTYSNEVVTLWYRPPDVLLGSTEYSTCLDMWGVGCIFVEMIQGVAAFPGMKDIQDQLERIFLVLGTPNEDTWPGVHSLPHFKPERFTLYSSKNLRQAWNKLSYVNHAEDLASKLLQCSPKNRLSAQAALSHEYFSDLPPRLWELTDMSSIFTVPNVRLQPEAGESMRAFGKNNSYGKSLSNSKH
Description: as §1

GSK3A = target: T12, GSK3A (Homo sapiens, UniProt P49840)
T12 construct: purchased Ambit Kinomescan (contract panel, KINOMEscan Max)
T12 sequence (P49840 whole entry): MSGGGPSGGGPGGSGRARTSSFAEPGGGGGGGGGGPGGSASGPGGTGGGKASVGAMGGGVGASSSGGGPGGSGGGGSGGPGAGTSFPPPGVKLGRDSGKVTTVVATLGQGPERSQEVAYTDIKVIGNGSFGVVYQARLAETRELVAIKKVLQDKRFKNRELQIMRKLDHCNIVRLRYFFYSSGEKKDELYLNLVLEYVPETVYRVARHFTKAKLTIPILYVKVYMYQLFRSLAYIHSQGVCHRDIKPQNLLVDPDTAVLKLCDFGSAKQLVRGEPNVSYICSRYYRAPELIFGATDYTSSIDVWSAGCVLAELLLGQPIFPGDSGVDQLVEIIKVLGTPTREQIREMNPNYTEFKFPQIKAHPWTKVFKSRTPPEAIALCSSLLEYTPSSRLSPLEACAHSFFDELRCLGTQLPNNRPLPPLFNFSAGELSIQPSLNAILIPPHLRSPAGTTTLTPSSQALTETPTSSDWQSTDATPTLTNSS
Description: as §1

CAMK2B = target: T13, CAMK2B (Homo sapiens, UniProt Q13554)
T13 construct: purchased Ambit Kinomescan (contract screening)
T13 sequence (Q13554 whole entry): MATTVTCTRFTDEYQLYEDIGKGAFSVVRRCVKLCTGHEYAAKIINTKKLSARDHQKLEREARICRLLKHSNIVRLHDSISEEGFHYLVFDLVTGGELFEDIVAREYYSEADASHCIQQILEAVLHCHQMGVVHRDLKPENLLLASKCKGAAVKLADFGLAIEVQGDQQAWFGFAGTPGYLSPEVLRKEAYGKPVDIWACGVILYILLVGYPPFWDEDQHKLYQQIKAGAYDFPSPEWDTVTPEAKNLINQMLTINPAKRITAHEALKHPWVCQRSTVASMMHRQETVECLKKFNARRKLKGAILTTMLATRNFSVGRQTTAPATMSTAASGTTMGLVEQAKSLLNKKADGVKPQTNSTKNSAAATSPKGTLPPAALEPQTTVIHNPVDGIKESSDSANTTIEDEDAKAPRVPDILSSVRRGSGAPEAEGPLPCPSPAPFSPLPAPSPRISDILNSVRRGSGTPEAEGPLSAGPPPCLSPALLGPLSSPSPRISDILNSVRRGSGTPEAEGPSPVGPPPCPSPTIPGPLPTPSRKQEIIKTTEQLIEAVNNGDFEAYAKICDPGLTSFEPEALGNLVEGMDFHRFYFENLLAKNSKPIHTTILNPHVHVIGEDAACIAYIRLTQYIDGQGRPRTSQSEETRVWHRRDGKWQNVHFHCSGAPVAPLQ
Description: as §1

ERK5 = target: T14, ERK5 (Homo sapiens, UniProt Q13164)
T14 construct: purchased Ambit Kinomescan (contract panel, KINOMEscan Max)
Description: as §1

BMPR1B = target: T15, BMPR1B (Homo sapiens, UniProt O00238)
T15 construct: DNA tag (qPCR label); purchased Ambit Kinomescan (contract screening)
Description: as §1

[1] = target: T16, RSK4(Kin.Dom.1-N-terminal) (Homo sapiens, UniProt Q9UK32); conditions: 1 μM
T16 construct: RSK4(Kin.Dom.1-N-terminal); DNA tag (qPCR read-out)
T16 sequence (Q9UK32 73-330 limits assumed): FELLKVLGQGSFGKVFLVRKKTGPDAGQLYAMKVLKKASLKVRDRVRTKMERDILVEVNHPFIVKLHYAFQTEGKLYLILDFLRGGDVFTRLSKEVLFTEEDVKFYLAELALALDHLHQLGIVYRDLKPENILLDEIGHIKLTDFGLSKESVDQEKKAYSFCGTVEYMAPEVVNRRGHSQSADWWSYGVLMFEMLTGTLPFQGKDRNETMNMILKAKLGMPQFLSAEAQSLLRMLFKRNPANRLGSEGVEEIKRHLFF
Description: as §1

PKNB(M.tuberculosis) = PKNB(M.tuberculosis) (Mycobacterium tuberculosis, UniProt P9WI81)
Description: as §1

PCTK2 = PCTK2 (Homo sapiens, UniProt Q00537)
Chain of PCTK2 (Q00537 whole entry): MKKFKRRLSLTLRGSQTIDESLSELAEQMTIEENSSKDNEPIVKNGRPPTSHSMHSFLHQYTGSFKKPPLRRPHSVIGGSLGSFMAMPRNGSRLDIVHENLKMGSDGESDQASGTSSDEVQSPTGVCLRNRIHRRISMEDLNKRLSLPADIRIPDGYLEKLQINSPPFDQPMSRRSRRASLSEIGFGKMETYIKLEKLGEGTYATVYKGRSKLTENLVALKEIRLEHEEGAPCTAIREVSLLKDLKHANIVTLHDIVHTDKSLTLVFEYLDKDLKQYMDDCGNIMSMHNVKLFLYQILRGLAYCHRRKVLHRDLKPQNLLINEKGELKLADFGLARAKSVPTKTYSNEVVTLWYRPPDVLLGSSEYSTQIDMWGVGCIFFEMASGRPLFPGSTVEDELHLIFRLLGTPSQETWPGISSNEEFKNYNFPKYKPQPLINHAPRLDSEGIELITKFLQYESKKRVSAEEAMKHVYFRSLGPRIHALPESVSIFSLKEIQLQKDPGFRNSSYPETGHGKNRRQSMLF
Description: as §1

TGFBR1 = target: T17, TGFBR1 (Homo sapiens, UniProt P36897)
T17 construct: purchased Ambit Kinomescan (contract screening service)
Description: as §1

CSK = target: T18, CSK (Homo sapiens, UniProt P41240); conditions: 1 μM
T18 construct: purchased Ambit (KINOMEscan Max panel service)
Description: as §1

CDK5 = target: T19, CDK5 (Homo sapiens, UniProt Q00535)
T19 construct: DNA tag (qPCR label); purchased Ambit Kinomescan (contract screening)
T19 sequence (Q00535 whole entry): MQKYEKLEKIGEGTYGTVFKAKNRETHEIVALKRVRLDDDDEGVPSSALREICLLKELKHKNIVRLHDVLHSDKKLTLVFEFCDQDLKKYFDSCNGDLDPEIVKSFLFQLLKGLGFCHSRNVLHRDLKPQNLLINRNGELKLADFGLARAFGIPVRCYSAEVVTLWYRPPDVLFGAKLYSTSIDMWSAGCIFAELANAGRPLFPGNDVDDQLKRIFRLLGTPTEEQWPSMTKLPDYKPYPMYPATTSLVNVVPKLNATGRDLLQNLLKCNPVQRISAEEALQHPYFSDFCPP
Description: as §1

RIOK1 = target: T20, RIOK1 (Homo sapiens, UniProt Q9BRS2)
T20 construct: DNA tag (qPCR read-out)
Description: as §1

ERBB4 = target: T21, ERBB4 (Homo sapiens, UniProt Q15303)
T21 construct: purchased Ambit Kinomescan (contract panel, KINOMEscan Max)
Description: as §1

EPHA6 = target: T22, EPHA6 (Homo sapiens, UniProt Q9UF33)
T22 construct: purchased Ambit (KINOMEscan Max panel service)
T22 sequence (Q9UF33 23-1036): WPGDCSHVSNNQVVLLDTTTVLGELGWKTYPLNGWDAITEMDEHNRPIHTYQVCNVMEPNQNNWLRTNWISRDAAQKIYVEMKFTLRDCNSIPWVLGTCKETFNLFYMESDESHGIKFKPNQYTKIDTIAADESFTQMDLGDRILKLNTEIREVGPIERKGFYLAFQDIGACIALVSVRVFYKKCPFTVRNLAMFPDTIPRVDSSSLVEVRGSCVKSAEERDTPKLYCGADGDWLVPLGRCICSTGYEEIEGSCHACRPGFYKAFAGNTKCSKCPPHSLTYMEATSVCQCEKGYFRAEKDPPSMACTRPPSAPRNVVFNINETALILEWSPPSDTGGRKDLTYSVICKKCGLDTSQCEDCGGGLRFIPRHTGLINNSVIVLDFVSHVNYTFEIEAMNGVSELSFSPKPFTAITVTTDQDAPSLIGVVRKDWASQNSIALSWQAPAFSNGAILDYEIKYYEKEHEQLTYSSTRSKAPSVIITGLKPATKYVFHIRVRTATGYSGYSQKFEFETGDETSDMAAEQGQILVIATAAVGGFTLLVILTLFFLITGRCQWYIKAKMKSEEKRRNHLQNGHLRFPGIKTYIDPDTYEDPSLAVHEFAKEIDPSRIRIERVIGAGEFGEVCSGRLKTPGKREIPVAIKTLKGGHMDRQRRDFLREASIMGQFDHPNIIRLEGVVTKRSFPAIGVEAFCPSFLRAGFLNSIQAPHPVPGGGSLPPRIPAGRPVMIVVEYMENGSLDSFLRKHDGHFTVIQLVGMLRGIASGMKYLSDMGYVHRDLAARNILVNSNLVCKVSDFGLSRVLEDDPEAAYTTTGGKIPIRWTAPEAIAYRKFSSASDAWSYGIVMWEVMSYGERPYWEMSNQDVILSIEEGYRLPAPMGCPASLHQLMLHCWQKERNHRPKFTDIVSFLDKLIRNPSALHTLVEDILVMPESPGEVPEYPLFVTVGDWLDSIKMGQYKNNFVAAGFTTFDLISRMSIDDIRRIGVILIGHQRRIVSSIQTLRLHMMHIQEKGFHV
Description: as §1

MYLK2 = target: T23, MYLK2 (Homo sapiens, UniProt Q9H1R3)
T23 construct: purchased Ambit (KINOMEscan Max service)
Description: as §1

MARK2 = MARK2 (Homo sapiens, UniProt Q7KZI7)
Description: as §1

[2] = target: T24, JAK2(JH1domain-catalytic) (Homo sapiens, UniProt O60674); conditions: 1 μM
T24 construct: JAK2(JH1domain-catalytic); purchased Ambit Kinomescan (contract screening)
Description: as §1

HPK1 = target: T25, HPK1 (Homo sapiens, UniProt Q92918)
T25 construct: purchased Ambit Kinomescan (contract panel, KINOMEscan Max)
Description: as §1

RIPK4 = target: T26, RIPK4 (Homo sapiens, UniProt P57078)
T26 construct: DNA tag (qPCR read-out)
Description: as §1

CLK4 = target: T27, CLK4 (Homo sapiens, UniProt Q9HAZ1)
T27 construct: DNA tag (qPCR read-out); purchased Ambit Kinomescan
Description: as §1

NLK = NLK (Homo sapiens, UniProt Q9UBE8)
Description: as §1

## NCCCNc1nc2c(Br)c(Br)c(Br)c(Br)c2[nH]1 [Compound 11, N-(3-aminopropyl)-4,5,6,7-tetrabromo-1H-benzo[d]imidazol-2-amine]
MEK2
  remaining binding at 1 µM: 100%
FGR
  remaining binding at 1 µM: 100%
DMPK2
  remaining binding at 1 µM: 96%
NEK7
  remaining binding at 1 µM: 86%
GRK7
  remaining binding at 1 µM: 100%
GSK3B
  remaining binding at 1 µM: 100%
WEE2
  remaining binding at 1 µM: 100%
BRSK1
  remaining binding at 1 µM: 100%
PRKD2
  remaining binding at 1 µM: 42%
LATS2
  % binding: 70%
BMPR2
  % binding: 99%
CSNK1D
  remaining binding at 1 µM: 17%
RIOK3
  remaining binding at 1 µM: 52%
PFTK1
  % binding: 100%
GSK3A
  remaining binding at 1 µM: 100%
CAMK2B
  remaining binding at 1 µM: 97%
ERK5
  remaining binding at 1 µM: 100%
BMPR1B
  remaining binding at 1 µM: 100%
[1]
  % binding: 100%
PKNB(M.tuberculosis)
  remaining binding at 1 µM: 91%
PCTK2
  remaining binding at 1 µM: 100%
TGFBR1
  remaining binding at 1 µM: 100%
CSK
  % binding: 100%
CDK5
  remaining binding at 1 µM: 100%
RIOK1
  remaining binding at 1 µM: 56%
ERBB4
  remaining binding at 1 µM: 100%
EPHA6
  remaining binding at 1 µM: 100%
MYLK2
  remaining binding at 1 µM: 86%
MARK2
  remaining binding at 1 µM: 94%
[2]
  % binding: 98%
HPK1
  remaining binding at 1 µM: 100%
RIPK4
  remaining binding at 1 µM: 100%
CLK4
  remaining binding at 1 µM: 22%
NLK
  remaining binding at 1 µM: 100%
